Assay [1] deals with blood flow in tumor and non-tumor regions. The assay can be described thus: H2^15O PET Blood Flow scans after IRL-1620. It counts as in vivo, human. Particulars: patients, PET blood flow scans on Day 8.
Assay [2] deals with progressive or recurrent carcinoma. The assay can be described thus: Open label, single arm, dose escalation study of IRL-1620 in combination with docetaxel: anti-tumor activity. It counts as in vivo, human. From the text: Patient characteristics were as follows.
CT or MRI scans are used to assess the patient's tumor size. A series of dynamic contrast enhancer pattern MRI scans are used to measure any increases in blood flow induced by IRL 1620.

[3] abbreviates: 30 patients, IRL-1620 with docetaxel.
Where [4] appears, read: previously docetaxel treated prostate cancer patient.

Numbered stars: 1 amine (or outer) side, 2 acyl side, 3 side chain; on linkers, the order of the positions; unused ones are H or OH. Ends that are not written are not given here. Suc = O=C(CCC(=O)[*:2])[*:1]

For “N-Succunyl-[Glu^9, Ala^11,15] Endothelin-1 (8-21) (Suc-DEEAVYFAHLDIIW) [IRL-1620, ETB receptor agonist]”, in assay [1], the “changes in blood flow” value is “did not result in any measurable changes”. Also, the “time on study of patients with prolonged clinical benefit” value in assay [2] (4 cases, IRL-1620 with docetaxel) is listed as 20-74 weeks. For the same substance, in assay [2] (setting [3]), the “cases of prolonged clinical benefit” value is given as 4 cases, the “cases of stable disease” value was found to be 5 cases, the “prolonged clinical benefit rate” value turned out to be 13% and the “stable disease (SD) rate” value is given as 16%. Further, the anti-tumor activity result in assay [2] (docetaxel-pretreated patients) is on record as “Anti-tumor activity was seen”. In addition, in assay [2] (one patient with cholangiocarcinoma), the “time to complete regression of lung metastasis” value was no more than 3 months. The “time on study before progressing” value in assay [2] (one patient with cholangiocarcinoma, complete regression of lung metastasis) came out at 41 weeks. Further, in assay [2] (patients, IRL-1620 with docetaxel), the “discontinuation of the study due to disease progression” value is on record as 84%. In assay [2] (setting [4]), the PSA response result is reported as “PSA response” and the “change in metastatic prostate cancer” value is listed as “measurable decrease”.

The values above are taken from patent publication US10022421B2, “Treatment of primary and metastatic carcinoma” (Spectrum Pharmaceuticals Inc., priority 2012, dated 2018).
